Measured values reported in paper PMC12586182 (Frontiers in Oncology, 2025).

Key:
Test in all cases: Kinase panel profiling at 1 µmol/L (mobility shift assay, Carna)
Type in all cases: biochemical
Details in all cases: 1 µmol/L of BTK inhibitor
ABL = molecular target: T1, ABL (Homo sapiens, UniProt P00519)
T1 construct: purchased Carna Biosciences

EPHA5 = molecular target: T2, EPHA5 (Homo sapiens, UniProt P54756)
T2 construct: purchased Carna Biosciences

LATS2 = molecular target: T3, LATS2 (Homo sapiens, UniProt Q9NRM7)
T3 construct: purchased Carna Biosciences
T3 sequence (Q9NRM7 1-1088): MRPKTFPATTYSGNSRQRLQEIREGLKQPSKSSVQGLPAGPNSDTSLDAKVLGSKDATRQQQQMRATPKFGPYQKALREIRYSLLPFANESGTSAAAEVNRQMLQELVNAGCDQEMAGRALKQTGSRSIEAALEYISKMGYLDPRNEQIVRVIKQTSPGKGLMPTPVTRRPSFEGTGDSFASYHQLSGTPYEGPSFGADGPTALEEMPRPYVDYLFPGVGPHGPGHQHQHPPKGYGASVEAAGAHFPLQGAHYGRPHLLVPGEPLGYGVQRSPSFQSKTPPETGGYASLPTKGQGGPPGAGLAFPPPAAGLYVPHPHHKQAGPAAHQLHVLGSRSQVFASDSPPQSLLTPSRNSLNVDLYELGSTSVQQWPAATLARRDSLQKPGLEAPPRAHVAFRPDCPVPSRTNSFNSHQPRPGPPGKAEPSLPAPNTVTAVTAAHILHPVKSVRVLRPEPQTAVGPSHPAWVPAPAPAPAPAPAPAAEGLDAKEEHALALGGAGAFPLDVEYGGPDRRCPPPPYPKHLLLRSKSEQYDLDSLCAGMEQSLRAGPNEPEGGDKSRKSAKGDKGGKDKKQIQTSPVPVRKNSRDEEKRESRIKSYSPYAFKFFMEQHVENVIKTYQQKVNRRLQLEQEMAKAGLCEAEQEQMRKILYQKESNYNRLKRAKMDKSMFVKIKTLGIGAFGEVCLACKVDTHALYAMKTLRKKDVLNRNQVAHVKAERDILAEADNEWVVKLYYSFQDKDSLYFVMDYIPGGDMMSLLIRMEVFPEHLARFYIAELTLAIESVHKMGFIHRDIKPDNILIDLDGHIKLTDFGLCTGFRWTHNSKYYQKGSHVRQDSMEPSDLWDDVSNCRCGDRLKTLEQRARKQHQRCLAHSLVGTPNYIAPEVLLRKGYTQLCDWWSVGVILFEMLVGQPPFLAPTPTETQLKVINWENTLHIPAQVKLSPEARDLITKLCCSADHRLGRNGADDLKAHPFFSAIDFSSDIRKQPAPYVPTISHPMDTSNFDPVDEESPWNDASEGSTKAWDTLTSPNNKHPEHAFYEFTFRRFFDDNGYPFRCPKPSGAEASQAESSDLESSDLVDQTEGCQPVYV

MSK1 = molecular target: T4, MSK1 (Homo sapiens, UniProt O75582)
T4 construct: purchased Carna Biosciences
T4 sequence (O75582 whole entry): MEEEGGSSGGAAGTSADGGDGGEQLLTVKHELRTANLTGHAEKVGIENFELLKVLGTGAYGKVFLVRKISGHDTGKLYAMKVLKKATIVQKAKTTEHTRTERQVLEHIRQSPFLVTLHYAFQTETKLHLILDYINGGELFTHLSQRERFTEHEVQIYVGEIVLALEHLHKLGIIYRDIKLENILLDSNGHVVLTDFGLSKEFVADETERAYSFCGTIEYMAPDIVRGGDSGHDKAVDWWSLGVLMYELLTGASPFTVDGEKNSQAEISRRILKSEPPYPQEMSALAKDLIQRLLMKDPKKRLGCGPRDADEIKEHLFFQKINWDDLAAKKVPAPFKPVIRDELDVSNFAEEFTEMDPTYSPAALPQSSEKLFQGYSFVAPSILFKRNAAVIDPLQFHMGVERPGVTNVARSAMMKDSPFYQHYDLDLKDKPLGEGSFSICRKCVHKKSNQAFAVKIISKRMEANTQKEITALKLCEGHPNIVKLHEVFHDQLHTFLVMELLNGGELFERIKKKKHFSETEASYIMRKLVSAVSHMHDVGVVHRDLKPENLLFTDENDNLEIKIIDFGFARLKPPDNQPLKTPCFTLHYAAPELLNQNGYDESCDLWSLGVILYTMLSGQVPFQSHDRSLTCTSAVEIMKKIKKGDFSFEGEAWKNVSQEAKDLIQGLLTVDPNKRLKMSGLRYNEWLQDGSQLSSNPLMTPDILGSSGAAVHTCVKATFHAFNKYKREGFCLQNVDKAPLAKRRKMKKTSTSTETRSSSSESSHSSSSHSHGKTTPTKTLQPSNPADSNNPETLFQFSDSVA

NEK1 = molecular target: T5, NEK1 (Homo sapiens, UniProt Q96PY6)
T5 construct: purchased Carna Biosciences
T5 sequence (Q96PY6 1-1258): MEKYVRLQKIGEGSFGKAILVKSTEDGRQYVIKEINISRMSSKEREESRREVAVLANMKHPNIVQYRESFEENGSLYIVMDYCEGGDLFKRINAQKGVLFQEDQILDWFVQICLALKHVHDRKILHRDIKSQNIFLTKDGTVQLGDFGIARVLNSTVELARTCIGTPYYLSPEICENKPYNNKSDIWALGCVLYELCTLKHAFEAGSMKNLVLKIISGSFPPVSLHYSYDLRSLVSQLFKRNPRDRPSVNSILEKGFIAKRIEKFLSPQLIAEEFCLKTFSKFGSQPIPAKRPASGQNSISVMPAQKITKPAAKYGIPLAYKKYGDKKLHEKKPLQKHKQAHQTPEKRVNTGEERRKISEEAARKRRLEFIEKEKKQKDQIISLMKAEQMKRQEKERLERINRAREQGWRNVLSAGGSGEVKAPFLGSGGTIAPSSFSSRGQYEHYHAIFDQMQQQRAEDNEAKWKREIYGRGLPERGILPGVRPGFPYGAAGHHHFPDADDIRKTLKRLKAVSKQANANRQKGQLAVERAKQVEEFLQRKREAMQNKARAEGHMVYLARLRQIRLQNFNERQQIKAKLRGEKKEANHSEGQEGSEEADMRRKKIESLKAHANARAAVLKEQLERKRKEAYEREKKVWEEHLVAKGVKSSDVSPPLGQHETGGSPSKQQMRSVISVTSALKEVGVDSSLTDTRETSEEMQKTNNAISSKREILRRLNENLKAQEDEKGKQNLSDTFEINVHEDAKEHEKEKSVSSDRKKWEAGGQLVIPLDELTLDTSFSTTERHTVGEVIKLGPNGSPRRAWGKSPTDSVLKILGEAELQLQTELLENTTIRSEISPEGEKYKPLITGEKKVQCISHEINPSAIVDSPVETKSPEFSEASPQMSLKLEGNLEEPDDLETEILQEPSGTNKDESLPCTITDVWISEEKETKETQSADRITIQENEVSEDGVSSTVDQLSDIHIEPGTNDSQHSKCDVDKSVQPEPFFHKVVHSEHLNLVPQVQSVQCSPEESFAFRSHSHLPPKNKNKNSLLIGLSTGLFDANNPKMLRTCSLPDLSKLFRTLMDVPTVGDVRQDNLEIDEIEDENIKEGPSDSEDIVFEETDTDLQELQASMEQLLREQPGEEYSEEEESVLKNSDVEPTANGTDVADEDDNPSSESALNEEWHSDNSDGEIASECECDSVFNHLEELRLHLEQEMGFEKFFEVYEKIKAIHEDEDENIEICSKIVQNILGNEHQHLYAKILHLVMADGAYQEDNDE

PAK1 = molecular target: T6, PAK1 (Homo sapiens, UniProt Q13153)
T6 construct: purchased Carna Biosciences
T6 sequence (Q13153 whole entry): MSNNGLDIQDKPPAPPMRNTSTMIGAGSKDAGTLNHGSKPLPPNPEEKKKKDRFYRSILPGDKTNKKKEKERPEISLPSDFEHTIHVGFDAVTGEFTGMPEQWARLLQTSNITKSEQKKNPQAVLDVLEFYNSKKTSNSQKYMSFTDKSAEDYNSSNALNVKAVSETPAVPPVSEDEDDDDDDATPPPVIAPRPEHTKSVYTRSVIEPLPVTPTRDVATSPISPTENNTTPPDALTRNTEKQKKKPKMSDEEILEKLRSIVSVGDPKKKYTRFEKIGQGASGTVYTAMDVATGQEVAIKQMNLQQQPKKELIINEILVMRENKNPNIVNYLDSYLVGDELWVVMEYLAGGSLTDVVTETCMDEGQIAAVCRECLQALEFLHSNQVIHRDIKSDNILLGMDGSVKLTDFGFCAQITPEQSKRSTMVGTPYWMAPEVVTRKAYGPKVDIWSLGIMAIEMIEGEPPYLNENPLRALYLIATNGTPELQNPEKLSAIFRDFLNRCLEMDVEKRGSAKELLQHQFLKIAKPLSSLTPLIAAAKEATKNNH

PKACβ = molecular target: T7, PKACβ (Homo sapiens, UniProt P22694)
T7 construct: purchased Carna Biosciences

skMLCK = molecular target: T8, skMLCK (Homo sapiens, UniProt Q9H1R3)
T8 construct: purchased Carna Biosciences
T8 sequence (Q9H1R3 whole entry): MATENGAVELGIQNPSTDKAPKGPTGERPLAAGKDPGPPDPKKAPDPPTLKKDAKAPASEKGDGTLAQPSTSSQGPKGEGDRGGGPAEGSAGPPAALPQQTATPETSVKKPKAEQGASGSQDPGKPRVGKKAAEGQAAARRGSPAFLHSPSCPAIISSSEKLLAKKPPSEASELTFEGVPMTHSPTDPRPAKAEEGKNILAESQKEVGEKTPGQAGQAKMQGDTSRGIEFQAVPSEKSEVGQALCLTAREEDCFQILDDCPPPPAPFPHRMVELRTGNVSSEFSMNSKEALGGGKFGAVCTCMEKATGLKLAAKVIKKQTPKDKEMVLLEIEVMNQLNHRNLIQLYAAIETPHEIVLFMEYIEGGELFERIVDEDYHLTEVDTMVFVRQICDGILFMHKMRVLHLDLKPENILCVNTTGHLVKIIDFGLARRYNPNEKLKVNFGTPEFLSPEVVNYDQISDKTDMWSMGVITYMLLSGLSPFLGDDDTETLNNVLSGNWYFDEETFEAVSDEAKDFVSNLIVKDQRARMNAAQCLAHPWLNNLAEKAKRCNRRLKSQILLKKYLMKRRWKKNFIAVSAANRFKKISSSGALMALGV

TSSK3 = molecular target: T9, TSSK3 (Homo sapiens, UniProt Q96PN8)
T9 construct: purchased Carna Biosciences
T9 sequence (Q96PN8 1-268): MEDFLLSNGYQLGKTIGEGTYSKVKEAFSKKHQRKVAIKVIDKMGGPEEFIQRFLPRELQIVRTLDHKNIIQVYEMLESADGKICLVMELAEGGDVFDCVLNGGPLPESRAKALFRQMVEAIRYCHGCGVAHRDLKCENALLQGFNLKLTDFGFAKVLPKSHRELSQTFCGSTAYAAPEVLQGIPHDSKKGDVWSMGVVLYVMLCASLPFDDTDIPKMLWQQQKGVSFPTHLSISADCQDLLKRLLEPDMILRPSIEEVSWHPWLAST

T1 sequence (P00519 whole entry): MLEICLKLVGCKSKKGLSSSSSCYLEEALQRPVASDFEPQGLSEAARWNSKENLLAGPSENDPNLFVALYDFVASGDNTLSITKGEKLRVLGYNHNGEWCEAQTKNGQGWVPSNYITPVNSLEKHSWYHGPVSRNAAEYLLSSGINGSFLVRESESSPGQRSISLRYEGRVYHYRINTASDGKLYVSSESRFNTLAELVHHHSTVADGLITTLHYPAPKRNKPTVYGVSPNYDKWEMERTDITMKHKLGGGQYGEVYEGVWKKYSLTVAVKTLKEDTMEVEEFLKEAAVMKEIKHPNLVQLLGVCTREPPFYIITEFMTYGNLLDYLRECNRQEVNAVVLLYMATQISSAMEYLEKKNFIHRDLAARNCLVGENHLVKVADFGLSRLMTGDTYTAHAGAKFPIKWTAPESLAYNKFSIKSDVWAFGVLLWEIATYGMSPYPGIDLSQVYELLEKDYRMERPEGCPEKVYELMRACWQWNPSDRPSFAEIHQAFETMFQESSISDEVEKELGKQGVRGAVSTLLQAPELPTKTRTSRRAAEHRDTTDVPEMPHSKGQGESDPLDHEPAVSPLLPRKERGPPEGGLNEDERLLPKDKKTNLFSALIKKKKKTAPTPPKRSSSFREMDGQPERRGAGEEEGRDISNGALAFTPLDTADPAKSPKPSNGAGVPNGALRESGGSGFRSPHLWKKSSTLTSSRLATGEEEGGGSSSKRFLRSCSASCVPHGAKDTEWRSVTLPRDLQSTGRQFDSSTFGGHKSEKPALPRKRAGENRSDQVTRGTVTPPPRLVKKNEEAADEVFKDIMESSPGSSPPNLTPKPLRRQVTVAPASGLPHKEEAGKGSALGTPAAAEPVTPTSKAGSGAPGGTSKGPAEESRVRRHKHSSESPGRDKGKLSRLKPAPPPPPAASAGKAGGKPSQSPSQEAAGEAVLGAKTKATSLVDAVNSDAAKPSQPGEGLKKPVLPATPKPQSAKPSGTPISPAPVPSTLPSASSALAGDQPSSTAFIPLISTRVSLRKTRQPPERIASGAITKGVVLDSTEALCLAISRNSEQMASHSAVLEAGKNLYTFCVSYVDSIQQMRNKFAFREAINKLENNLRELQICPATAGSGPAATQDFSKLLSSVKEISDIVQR
T2 sequence (P54756 25-1037): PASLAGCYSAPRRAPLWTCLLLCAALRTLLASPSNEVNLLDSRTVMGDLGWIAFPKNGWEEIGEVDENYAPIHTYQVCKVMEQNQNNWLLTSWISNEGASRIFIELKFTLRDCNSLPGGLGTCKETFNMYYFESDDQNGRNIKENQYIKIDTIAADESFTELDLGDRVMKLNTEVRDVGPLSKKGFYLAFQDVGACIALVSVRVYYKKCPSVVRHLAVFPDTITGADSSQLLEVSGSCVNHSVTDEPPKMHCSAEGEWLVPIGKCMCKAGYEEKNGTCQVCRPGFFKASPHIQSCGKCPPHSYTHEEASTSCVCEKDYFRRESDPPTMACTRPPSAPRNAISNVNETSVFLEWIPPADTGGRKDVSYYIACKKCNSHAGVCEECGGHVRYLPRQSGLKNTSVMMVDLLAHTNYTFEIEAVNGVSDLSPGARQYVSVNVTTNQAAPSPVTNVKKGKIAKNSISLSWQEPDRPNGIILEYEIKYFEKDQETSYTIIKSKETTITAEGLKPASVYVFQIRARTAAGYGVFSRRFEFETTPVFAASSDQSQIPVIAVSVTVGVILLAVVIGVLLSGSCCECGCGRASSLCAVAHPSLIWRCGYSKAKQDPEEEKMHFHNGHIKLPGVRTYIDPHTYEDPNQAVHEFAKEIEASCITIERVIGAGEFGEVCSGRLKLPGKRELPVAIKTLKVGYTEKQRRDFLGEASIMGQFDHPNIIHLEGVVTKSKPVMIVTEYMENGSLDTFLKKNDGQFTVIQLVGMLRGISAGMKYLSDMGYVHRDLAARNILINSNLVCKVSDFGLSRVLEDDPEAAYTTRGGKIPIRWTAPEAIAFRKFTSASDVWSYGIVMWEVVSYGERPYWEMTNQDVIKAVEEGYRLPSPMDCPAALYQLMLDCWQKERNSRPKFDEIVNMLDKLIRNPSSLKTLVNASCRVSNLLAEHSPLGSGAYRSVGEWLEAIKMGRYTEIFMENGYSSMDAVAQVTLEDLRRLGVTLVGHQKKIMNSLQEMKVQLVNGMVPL

CC#CC(=O)N1CCC[C@H]1c1nc(-c2ccc(C(=O)Nc3ccccn3)cc2)c2c(N)nccn12 [acalabrutinib]
Percentage inhibition of kinase enzyme activity (ABL): -2.81% | Percentage inhibition of kinase enzyme activity (EPHA5): -1.17% | Percentage inhibition of kinase enzyme activity (LATS2): -7.45% | Percentage inhibition of kinase enzyme activity (MSK1): -7.68% | Percentage inhibition of kinase enzyme activity (NEK1): -7.46% | Percentage inhibition of kinase enzyme activity (PAK1): -0.37% | Percentage inhibition of kinase enzyme activity (PKACβ): -13.09% | Percentage inhibition of kinase enzyme activity (skMLCK): -17.48% | Percentage inhibition of kinase enzyme activity (TSSK3): -7.85%

C=CC(=O)N1CCC[C@@H](n2nc(-c3ccc(Oc4ccccc4)cc3)c3c(N)ncnc32)C1 [ibrutinib]
Percentage inhibition of kinase enzyme activity (ABL): 7.80% | Percentage inhibition of kinase enzyme activity (EPHA5): 25.73% | Percentage inhibition of kinase enzyme activity (LATS2): 5.45% | Percentage inhibition of kinase enzyme activity (MSK1): -1.18% | Percentage inhibition of kinase enzyme activity (NEK1): 3.73% | Percentage inhibition of kinase enzyme activity (PAK1): 6.57% | Percentage inhibition of kinase enzyme activity (PKACβ): -9.04% | Percentage inhibition of kinase enzyme activity (skMLCK): -16.74% | Percentage inhibition of kinase enzyme activity (TSSK3): -3.87%

O=C(c1ccc(Oc2ccccc2)cc1Cl)c1c[nH]c2ncnc(N[C@@H]3CC[C@@H](CO)OC3)c12 [nemtabrutinib]
Percentage inhibition of kinase enzyme activity (ABL): 56.26% | Percentage inhibition of kinase enzyme activity (EPHA5): 100.38% | Percentage inhibition of kinase enzyme activity (LATS2): 70.96% | Percentage inhibition of kinase enzyme activity (MSK1): 11.30% | Percentage inhibition of kinase enzyme activity (NEK1): -1.75% | Percentage inhibition of kinase enzyme activity (PAK1): 79.33% | Percentage inhibition of kinase enzyme activity (PKACβ): 12.59% | Percentage inhibition of kinase enzyme activity (skMLCK): 2.60% | Percentage inhibition of kinase enzyme activity (TSSK3): 2.56%

COc1ccc(F)cc1C(=O)NCc1ccc(-c2nn([C@@H](C)C(F)(F)F)c(N)c2C(N)=O)cc1 [pirtobrutinib]
Percentage inhibition of kinase enzyme activity (ABL): 2.26% | Percentage inhibition of kinase enzyme activity (EPHA5): 0.45% | Percentage inhibition of kinase enzyme activity (LATS2): 2.57% | Percentage inhibition of kinase enzyme activity (MSK1): 4.32% | Percentage inhibition of kinase enzyme activity (NEK1): -2.24% | Percentage inhibition of kinase enzyme activity (PAK1): 5.73% | Percentage inhibition of kinase enzyme activity (PKACβ): -8.02% | Percentage inhibition of kinase enzyme activity (skMLCK): -3.69% | Percentage inhibition of kinase enzyme activity (TSSK3): -1.40%

C=CC(=O)N1CCC([C@@H]2CCNc3c(C(N)=O)c(-c4ccc(Oc5ccccc5)cc4)nn32)CC1 [zanubrutinib]
Percentage inhibition of kinase enzyme activity (EPHA5): 13.96% | Percentage inhibition of kinase enzyme activity (MSK1): 0.57%
